Patent US7772180B2, “Hepatitis C virus inhibitors” (Bristol-Myers Squibb Company, priority 2006, dated 2010)
Where two headings read alike, the source gives them in different places.

Assays:
[1] = target: T1, HCV NS3/4A protease complex, BMS strain (UniProt P27958, species not given/STRAIN_BMS); test: FRET peptide assay to monitor HCV NS3/4A proteolytic activity (BMS strain); format: biochemical, Hepatitis C virus (genotype 1a); settings: read-out: HCV Protease (IC50), NS3/4A BMS strain
T1 construct: other: NS3/4A BMS strain; activity range class; numeric values, unit not given; said of H77 and J4L6S; fused on or other part: A three-lysine solubilising tail at the C-terminus of NS4A; A His tag is implied by the pET21b vector and Ni-NTA purification; Both are printed for the H77 and J4L6S constructs and apply to BMS by inference
How it was run: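 Purified recombinant NS3/4A complex from genotype 1a BMS strain, 2-3 nM final, with RET S1 EDANS/DABCYL depsipeptide substrate at 2 μM final in HEPES pH 7.5, NaCl, Triton, glycerol, βME. Cleavage followed in real time by fluorescence. For high-potency compounds: 50 μg/ml BSA added, protease lowered to 300 pM.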

[2] = tested on: HCV replicon (strain 1b) in HUH-7 cells; test: HCV replicon FRET assay; format: cell-based, Hepatitis C virus
[3] = Hepatitis C virus, Huh-7, read-out: HCV Pro Replicon (EC50), HCV replicon cell assay, activity range class
[4] = read-out: HCV Pro Replicon (EC50), HCV replicon cell assay, activity range class
[5] = Hepatitis C virus, Huh-7, read-out: HCV Pro Replicon (EC50), HCV replicon cell assay, numeric values, unit inferred

T1 sequence (P27958 1027-1657, change not shown, one chain of several): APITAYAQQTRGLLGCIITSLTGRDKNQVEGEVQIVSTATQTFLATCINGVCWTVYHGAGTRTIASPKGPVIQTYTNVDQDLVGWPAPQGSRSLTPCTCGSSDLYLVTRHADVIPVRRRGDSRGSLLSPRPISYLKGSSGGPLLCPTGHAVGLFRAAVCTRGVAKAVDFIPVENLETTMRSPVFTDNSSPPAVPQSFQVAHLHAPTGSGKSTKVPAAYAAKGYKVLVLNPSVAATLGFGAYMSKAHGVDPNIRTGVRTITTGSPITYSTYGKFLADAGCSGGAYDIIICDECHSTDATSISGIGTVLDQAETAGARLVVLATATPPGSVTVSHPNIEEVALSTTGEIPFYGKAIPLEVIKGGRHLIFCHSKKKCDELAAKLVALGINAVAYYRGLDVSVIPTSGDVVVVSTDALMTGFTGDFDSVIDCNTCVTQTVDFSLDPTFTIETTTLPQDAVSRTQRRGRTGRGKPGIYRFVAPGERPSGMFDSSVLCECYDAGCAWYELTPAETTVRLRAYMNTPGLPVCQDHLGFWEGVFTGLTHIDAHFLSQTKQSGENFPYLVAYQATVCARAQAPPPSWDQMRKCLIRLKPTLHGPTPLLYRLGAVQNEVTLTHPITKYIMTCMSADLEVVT

Structure (SMILES) | IC50 ([1]; activity range class) [nM] | EC50 [2, 3] [nM] | EC50 [2, 4] [nM] | IC50 ([1]; numeric values, unit inferred) [nM] | EC50 [2, 5] [nM]
C=C[C@@H]1C[C@]1(NC(=O)[C@@H]1C[C@@H](Oc2nccc3cc(OC)ccc23)CN1C(=O)[C@@H](Nc1nc(OC)nc(OC)n1)C(C)(C)C)C(=O)NS(=O)(=O)C1CC1 [Compound 3, N-(4,6-dimethoxy-1,3,5-triazin-2-yl)-3-methyl-L-valyl-(4R)—N-((1R,2S)-1-((cyclopropylsulfonyl)carbamoyl)-2-vinylcyclopropyl)-4-((6-methoxy-1-isoquinolinyl)oxy)-L-prolinamide] | 0.6 to 20 | > 1000 |  |  | 
C=C[C@@H]1C[C@]1(NC(=O)[C@@H]1C[C@@H](Oc2nccc3cc(OC)ccc23)CN1C(=O)[C@@H](Nc1cc(C)cc(C)n1)C(C)C)C(=O)NS(=O)(=O)C1CC1 [Compound 1A, N-(4,6-dimethyl-2-pyridinyl)-L-valyl-(4R)—N-((1R,2S)-1-((cyclopropylsulfonyl)carbamoyl)-2-vinylcyclopropyl)-4-((6-methoxy-1-isoquinolinyl)oxy)-L-prolinamide] | 0.6 to 20 | 3 to 100 |  |  | 
C=C[C@@H]1C[C@]1(NC(=O)[C@@H]1C[C@@H](Oc2ncc(OC)c3ccc(Cl)cc23)CN1C(=O)[C@H](Nc1cccc(C(=O)N(C)C)c1)C(C)(C)C)C(=O)NS(=O)(=O)C1CC1 [218 second isomer, N-(3-(dimethylcarbamoyl)phenyl)-3-methyl-D-valyl-(4R)-4-((7-chloro-4-methoxy-1-isoquinolinyl)oxy)-N-((1R,2S)-1-((cyclopropylsulfonyl)carbamoyl)-2-vinylcyclopropyl)-L-prolinamide] | > 200 | > 1000 |  |  | 
C=C[C@@H]1C[C@]1(NC(=O)[C@@H]1C[C@@H](Oc2ncc(OC)c3ccc(Cl)cc23)CN1C(=O)[C@H](Nc1cccc(C(=O)OC)c1)C(C)(C)C)C(=O)NS(=O)(=O)C1CC1 [232 second isomer, N-(3-(methoxycarbonyl)phenyl)-3-methyl-D-valyl-(4R)-4-((7-chloro-4-methoxy-1-isoquinolinyl)oxy)-N-((1R,2S)-1-((cyclopropylsulfonyl)carbamoyl)-2-vinylcyclopropyl)-L-prolinamide] | 20 to 200 | 3 to 100 |  |  | 
C=C[C@@H]1C[C@]1(NC(=O)[C@@H]1C[C@@H](Oc2ncc(OC)c3ccc(Cl)cc23)CN1C(=O)[C@@H](Nc1ccc(S(=O)(=O)NCC)cc1)C(C)(C)C)C(=O)NS(=O)(=O)C1CC1 [223 first isomer, N-(4-(ethylsulfamoyl)phenyl)-3-methyl-L-valyl-(4R)-4-((7-chloro-4-methoxy-1-isoquinolinyl)oxy)-N-((1R,2S)-1-((cyclopropylsulfonyl)carbamoyl)-2-vinylcyclopropyl)-L-prolinamide] | 0.6 to 20 | 100 to 1000 |  |  | 
C=C[C@@H]1C[C@]1(NC(=O)[C@@H]1C[C@@H](Oc2ncc(OC)c3ccc(Cl)cc23)CN1C(=O)[C@@H](Nc1ccc(S(N)(=O)=O)cc1)C(C)(C)C)C(=O)NS(=O)(=O)C1CC1 [Compound 215A, 3-methyl-N-(4-sulfamoylphenyl)-L-valyl-(4R)-4-((7-chloro-4-methoxy-1-isoquinolinyl)oxy)-N-((1R,2S)-1-((cyclopropylsulfonyl)carbamoyl)-2-vinylcyclopropyl)-L-prolinamide] | 0.6 to 20 | 3 to 100 |  |  | 
C=C[C@@H]1C[C@]1(NC(=O)[C@@H]1C[C@@H](Oc2ncc(OC)c3ccc(Cl)cc23)CN1C(=O)[C@H](Nc1ccc(C(=O)N(C)C)cc1)C(C)(C)C)C(=O)NS(=O)(=O)C1CC1 [221 second isomer, N-(4-(dimethylcarbamoyl)phenyl)-3-methyl-D-valyl-(4R)-4-((7-chloro-4-methoxy-1-isoquinolinyl)oxy)-N-((1R,2S)-1-((cyclopropylsulfonyl)carbamoyl)-2-vinylcyclopropyl)-L-prolinamide] | 20 to 200 | > 1000 |  |  | 
C=C[C@@H]1C[C@]1(NC(=O)[C@@H]1C[C@@H](Oc2ncc(OC)c3ccc(Cl)cc23)CN1C(=O)C(C)Nc1nsnc1OC)C(=O)NS(=O)(=O)C1CC1 (some centres unmarked) [Compound 238] | 20 to 200 | 100 to 1000 |  |  | 
C=C[C@@H]1C[C@]1(NC(=O)[C@@H]1C[C@@H](Oc2ncc(OC)c3ccc(Cl)cc23)CN1C(=O)C(Nc1cccc(C)n1)C(C)(C)C)C(=O)NS(=O)(=O)C1CC1 (single isomer, unassigned) [28 second isomer] | 20 to 200 |  | 100 to 1000 |  | 
C=C[C@@H]1C[C@]1(NC(=O)[C@@H]1C[C@@H](Oc2nc(-c3ccc(OC(F)(F)F)cc3)cc3cc(OC)ccc23)CN1C(=O)[C@@H](NC1=NCCCS1)C(C)(C)C)C(=O)NS(=O)(=O)C1CC1 [Compound 37, N-(5,6-dihydro-4H-1,3-thiazin-2-yl)-3-methyl-L-valyl-(4R)—N-((1R,2S)-1-((cyclopropylsulfonyl)carbamoyl)-2-vinylcyclopropyl)-4-((6-methoxy-3-(4-(trifluoromethoxy)phenyl)-1-isoquinolinyl)oxy)-L-prolinamide] | 0.6 to 20 | 3 to 100 |  |  | 
C=C[C@@H]1C[C@]1(NC(=O)[C@@H]1C[C@@H](Oc2ncc(OC)c3ccc(Cl)cc23)CN1C(=O)[C@H](CC)Nc1nsnc1OCC)C(=O)NS(=O)(=O)C1CC1 [Compound 233A, (4R)-4-((7-chloro-4-methoxy-1-isoquinolinyl)oxy)-N-((1R,2S)-1-((cyclopropylsulfonyl)carbamoyl)-2-vinylcyclopropyl)-1-((2S)-2-((4-ethoxy-1,2,5-thiadiazol-3-yl)amino)butanoyl)-L-prolinamide] | 20 to 200 | 100 to 1000 |  |  | 
C=C[C@@H]1C[C@]1(NC(=O)[C@@H]1C[C@@H](Oc2nccc3cc(OC)ccc23)CN1C(=O)C(Nc1ccccn1)C(C)C)C(=O)NS(=O)(=O)C1CC1 (single isomer, unassigned) [Compound 7] | 20 to 200 | 3 to 100 |  |  | 
C=C[C@@H]1C[C@]1(NC(=O)[C@@H]1C[C@@H](Oc2ncc(OC)c3ccc(Cl)cc23)CN1C(=O)[C@@H](Nc1ccc(C(=O)O)cc1)C(C)(C)C)C(=O)NS(=O)(=O)C1CC1 [209 first isomer, N-(4-carboxyphenyl)-3-methyl-L-valyl-(4R)-4-((7-chloro-4-methoxy-1-isoquinolinyl)oxy)-N-((1R,2S)-1-((cyclopropylsulfonyl)carbamoyl)-2-vinylcyclopropyl)-L-prolinamide] | 0.6 to 20 | 3 to 100 |  |  | 
C=C[C@@H]1C[C@]1(NC(=O)[C@@H]1C[C@@H](Oc2nc(N(C)C)cc3cc(OC)ccc23)CN1C(=O)C(Nc1ccccc1)C(C)(C)C)C(=O)NS(=O)(=O)C1CC1 (single isomer, unassigned) [19 first isomer] | 0.6 to 20 | 3 to 100 |  |  | 
C=C[C@@H]1C[C@]1(NC(=O)[C@@H]1C[C@@H](Oc2ncc(OC)c3ccc(Cl)cc23)CN1C(=O)C(Nc1ccc(C(=O)OC(C)(C)C)cc1)C(C)(C)C)C(=O)NS(=O)(=O)C1CC1 (stereo partly drawn) [204 second isomer] | > 200 |  | > 1000 |  | 
C=C[C@@H]1C[C@]1(NC(=O)[C@@H]1C[C@@H](Oc2ncc(OC)c3ccc(Cl)cc23)CN1C(=O)C(Nc1ccc(C)nc1)C(C)(C)C)C(=O)NS(=O)(=O)C1CC1 (single isomer, unassigned) [Compound 26B] |  |  |  | 1300 | 3190
C=C[C@@H]1C[C@]1(NC(=O)[C@@H]1C[C@@H](Oc2ncc(OC)c3ccc(Cl)cc23)CN1C(=O)C(Nc1cccc(C)n1)C(C)(C)C)C(=O)NS(=O)(=O)C1CC1 (single isomer, unassigned) [28 first isomer] | 0.6 to 20 |  | 3 to 100 |  | 
C=CC1CC1(NC(=O)C1CC(Oc2ncc(OC)c3ccc(Cl)cc23)CN1C(=O)C(Nc1cccc(F)c1)C(C)(C)C)C(=O)NS(=O)(=O)C1CC1 (centres unmarked) [Compound 200B] |  |  |  | 160 | 195
C=C[C@@H]1C[C@]1(NC(=O)[C@@H]1C[C@@H](Oc2ncc(OC)c3ccc(Cl)cc23)CN1C(=O)C(C)Nc1n[s+]([O-])nc1OC)C(=O)NS(=O)(=O)C1CC1 (some centres unmarked) [Compound 236] | > 200 | > 1000 |  |  | 
C=C[C@@H]1C[C@]1(NC(=O)[C@@H]1C[C@@H](Oc2ncc(OC)c3ccc(Cl)cc23)CN1C(=O)C(Nc1ccc(C)nc1)C(C)(C)C)C(=O)NS(=O)(=O)C1CC1 (single isomer, unassigned) [26 first isomer] | 0.6 to 20 | 3 to 100 |  |  | 
C=C[C@@H]1C[C@]1(NC(=O)[C@@H]1C[C@@H](Oc2ncc(OC)c3ccc(Cl)cc23)CN1C(=O)[C@H](Nc1cccc(S(N)(=O)=O)c1)C(C)(C)C)C(=O)NS(=O)(=O)C1CC1 [207 second isomer, 3-methyl-N-(3-sulfamoylphenyl)-D-valyl-(4R)-4-((7-chloro-4-methoxy-1-isoquinolinyl)oxy)-N-((1R,2S)-1-((cyclopropylsulfonyl)carbamoyl)-2-vinylcyclopropyl)-L-prolinamide] | > 200 | > 1000 |  |  | 
C=C[C@@H]1C[C@]1(NC(=O)[C@@H]1C[C@@H](Oc2ncc(OC)c3ccc(Cl)cc23)CN1C(=O)[C@@H](Nc1cccc(C(=O)OC(C)C)c1)C(C)(C)C)C(=O)NS(=O)(=O)C1CC1 [231 first isomer, N-(3-(isopropoxycarbonyl)phenyl)-3-methyl-L-valyl-(4R)-4-((7-chloro-4-methoxy-1-isoquinolinyl)oxy)-N-((1R,2S)-1-((cyclopropylsulfonyl)carbamoyl)-2-vinylcyclopropyl)-L-prolinamide] | 0.6 to 20 | 3 to 100 |  |  | 
